Experimental data reported in patent US5336483A (priority 1993, dated 1994).
“Also recorded” adds a separate entry of the source. Like-named read-outs stand apart in the source and are kept apart here.

Columns and labels:
μ and κ2 receptor = test: Displacement of [^3 H]CycloFOXY, μ and κ2 receptor binding, rat brain lysed-P2 membranes
Low Affinity δ Receptors = test: Displacement of [^3 H]DADLE, low affinity δ receptors, rat lysed-P2 membranes; type: binding
[1] = biological target: T1, High Affinity δ Receptors (Rattus norvegicus, UniProt P33533); test: Displacement of [^3 H]DADLE, high affinity δ receptors, rat lysed-P2 membranes; type: binding
T1 construct: and rat lysed-P2 membranes as previously described; from tissue; host or cells: rat lysed-P2 membranes (brain)

μ receptor = biological target: T2, μ receptor (Rattus norvegicus, UniProt P33535); test: Displacement of [^3 H]DAGO, μ receptor binding, rat lysed-P2 membranes
T2 construct: and rat lysed-P2 membranes as previously described; from tissue; host or cells: rat brain, lysed-P2 membranes

κ1 receptor = biological target: T3, κ1 receptor (Cavia porcellus, UniProt P41144); test: biochemical; type: binding, guinea pig
T3 construct: from tissue; host or cells: guinea pig brain membranes, pretreated with BIT and FIT

[2] = tested on: morphine-induced analgesia; test: In vivo antagonist activity: reversal of morphine-induced analgesia, rat paw withdrawal latency test; conditions: for paw withdrawal latency after i.v. injection / reversal of behavioral arrest and other opioid effects / duration of reversal: 5 mg/kg i.v.; for paw withdrawal latency after i.v. injection: tested within 5-10 min; for paw withdrawal latency after i.v. injection / duration of reversal: morphine-treated rats; for reversal of behavioral arrest and other opioid effects: morphine sulphate 10 mg/kg s.c.; for blood brain barrier penetration: i.v., inferred from reversal of morphine effects in rats; for antagonist potency in vivo (comparison in words): morphine induced paw withdrawal latency; for reversal of the effects of morphine: rat paw withdrawal latency test
Experimental: Assessment of the ability of compounds 1, 2 and 10, 12 to cross the blood brain barrier was tested in male Sprague-Dawley rats (300 g) acutely treated with morphine. […] A baseline paw withdrawal to a radiant thermal stimulus was obtained in unrestrained animals as described in Iadarola et al., Brain Res. 1988, 455, 205-212 and Hargreaves, Pain 1988, 32, 77-78. The stimulus was set to give a baseline withdrawal latency of approximately 10 sec. and the cutoff was at 18 sec. After baseline testing, morphine sulphate, 10 mg/kg, was injected subcutaneously in a volume of 0.1 ml of saline/100 g of body weight.
Ioxy (1) and epiloxy (2) were evaluated in rat and guinea pig brain membranes for their opiate receptor selectivity and potency. […] This comparison was not made during development of the ^18 F cyclofoxy compounds.

κ2 receptor = test: Displacement of [^3 H]BRM (bremazocine), κ2 receptor binding, guinea pig brain membranes depleted of μ and δ sites; conditions: for less potent (fold) than ioxy: [^3 H]BRM displacement

T3 sequence (P41144 whole entry): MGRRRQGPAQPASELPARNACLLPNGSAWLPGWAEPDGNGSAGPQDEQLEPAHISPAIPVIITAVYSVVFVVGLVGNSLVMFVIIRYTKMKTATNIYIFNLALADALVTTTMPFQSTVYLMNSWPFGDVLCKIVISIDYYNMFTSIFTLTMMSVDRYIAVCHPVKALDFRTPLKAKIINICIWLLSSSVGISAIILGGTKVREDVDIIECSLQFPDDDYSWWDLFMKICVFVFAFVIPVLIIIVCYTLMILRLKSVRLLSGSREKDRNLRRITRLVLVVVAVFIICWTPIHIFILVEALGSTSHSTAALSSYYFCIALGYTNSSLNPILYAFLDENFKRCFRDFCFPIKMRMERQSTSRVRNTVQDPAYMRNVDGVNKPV
T2 sequence (P33535 whole entry): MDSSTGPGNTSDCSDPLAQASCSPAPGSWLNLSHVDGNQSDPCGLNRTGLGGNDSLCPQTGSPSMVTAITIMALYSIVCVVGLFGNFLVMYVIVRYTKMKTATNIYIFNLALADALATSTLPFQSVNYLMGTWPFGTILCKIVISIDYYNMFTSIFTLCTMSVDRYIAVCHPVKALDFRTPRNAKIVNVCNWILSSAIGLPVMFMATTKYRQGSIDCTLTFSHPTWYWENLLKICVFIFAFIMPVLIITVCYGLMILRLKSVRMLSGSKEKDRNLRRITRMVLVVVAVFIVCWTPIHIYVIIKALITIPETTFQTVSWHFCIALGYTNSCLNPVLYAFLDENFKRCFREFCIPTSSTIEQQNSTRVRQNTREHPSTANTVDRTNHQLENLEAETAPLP
T1 sequence (P33533 whole entry): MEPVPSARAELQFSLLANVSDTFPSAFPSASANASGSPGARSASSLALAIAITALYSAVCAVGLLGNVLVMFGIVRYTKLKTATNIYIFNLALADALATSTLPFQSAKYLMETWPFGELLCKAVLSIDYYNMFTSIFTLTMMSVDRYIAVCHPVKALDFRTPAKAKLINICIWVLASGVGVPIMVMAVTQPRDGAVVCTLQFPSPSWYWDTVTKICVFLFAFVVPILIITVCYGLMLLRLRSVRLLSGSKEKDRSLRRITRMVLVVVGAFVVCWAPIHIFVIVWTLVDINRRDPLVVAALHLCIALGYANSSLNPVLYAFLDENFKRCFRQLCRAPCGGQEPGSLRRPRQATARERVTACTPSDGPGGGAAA

Row | SMILES | IC50 (μ and κ2 receptor) [nM] | Ki (μ and κ2 receptor) [nM] | relative affinity / potency in words (μ and κ2 receptor; [^3 H]CycloFOXY displacement) | Ki (Low Affinity δ Receptors) [nM] | Ki [1] [nM] | N (slope factor) ([1]; [^3 H]DADLE, high affinity δ) | IC50 (μ receptor) [nM] | Ki (μ receptor) [nM] | N (slope factor) (μ receptor; [^3 H]DAGO displacement) | IC50 (κ1 receptor) [nM] | Ki (κ1 receptor) [nM] | N (slope factor) (κ1 receptor) | paw withdrawal latency after i.v. injection [2] | reversal of behavioral arrest and other opioid effects [2] | duration of reversal [2] | blood brain barrier penetration [2] | reversal of the effects of morphine [2] | IC50 (κ2 receptor) [nM] | Ki (κ2 receptor) [nM] | IC50 (Low Affinity δ Receptors) [nM] | also measured
1 | Oc1ccc2c3c1O[C@H]1[C@H](I)CC[C@@]4(O)[C@@H](C2)N(CC2CC2)CC[C@]314 [IOXY, 6β-Iodo-3,14-Dihydroxy-17-Cyclopropylmethyl-4,5α-Epoxymorphinan] | 0.77 ± 0.05 | 0.29 | more potent than the opiate antagonist, naltrexone | 2.25 | 11.7 | 0.77 ± .07 | 2.74 ± 0.21 | 0.8 | 1.05 ± .07 | 0.89 ± 0.01 | 0.42 | 1.04 ± .02 | returned to near baseline values | reversed in a matter of seconds | at least 40 min | readily passed the blood brain barrier | complete reversal of the effects of morphine | 7.65 ± 0.23 | 2.73 |  | relative affinity in words (Low Affinity δ Receptors; [^3 H]DADLE, low affinity δ): highest affinity of all the compounds tested; IC50 (Low Affinity δ Receptors; […], ligand concentration = 2.1 nM): 2.64 ± 0.21 nM; IC50 [1]: 5.6 ± 3.1 nM; relative potency in words (μ receptor; [^3 H]DAGO displacement): most potent; kappa selectivity κ1/μ (κ1 receptor): 1.9; relative potency in words (κ1 receptor): most potent displacers; blood brain barrier penetration ([2]; listed as 1): getting into the brain; antagonist potency in vivo (comparison in words) ([2]; listed as Ioxy): more potent in vivo than compound 2 and cyclofoxy; antagonist potency in vivo (comparison in words) ([2]; listed as ioxy): potent opioid receptor antagonist in the rat; also recorded: more effective than epiioxy; kappa selectivity κ2/μ (κ2 receptor; ratio κ2/μ): 0.3
2 | Oc1ccc2c3c1O[C@H]1[C@@H](I)CC[C@@]4(O)[C@@H](C2)N(CC2CC2)CC[C@]314 [EpilOXY, 6α-Iodo-3,14-Dihydroxy-17-Cyclopropylmethyl-4,5α-Epoxymorphinan] | 4.34 ± 0.19 | 1.65 |  | 6.88 | 46.2 | 0.99 ± .07 | 7.16 ± 0.72 | 2.09 | 0.95 ± .08 | 3.17 ± 0.06 | 1.49 | 1.10 ± .02 | returned to near baseline values | reversed in a matter of seconds | at least 40 min | getting into the brain | complete reversal of the effects of morphine | 23.7 ± 1.1 | 8.46 | 8.06 ± 0.58 | reduction in affinity (fold) compared with ioxy (1) (μ and κ2 receptor; [^3 H]CycloFOXY displacement): 6 fold; lower affinity (fold) than ioxy (1) (Low Affinity δ Receptors; [^3 H]DADLE, low affinity δ): 3 fold; lowered affinity / less potent (fold) than ioxy (1) ([1]; [^3 H]DADLE, high affinity δ): 4 fold; IC50 ([1]; read-out: IC50): 101 ± 8.4 nM; lower affinity / less potent (fold) than ioxy (μ receptor; [^3 H]DAGO displacement): 2 fold; less potent (fold) than ioxy (κ1 receptor): 4 fold; less potent (fold) than ioxy (κ2 receptor): 3 fold
3 | CC(=O)Oc1ccc2c3c1O[C@H]1[C@@H](I)CC[C@@]4(O)[C@@H](C2)N(CC2CC2)CC[C@]314 [Compound 12, 3-Acetoxy-6α-Iodo-14-Hydroxy-17-Cyclopropylmethyl-4,5α-Epoxymorphinan] |  |  |  |  |  |  |  |  |  |  |  |  | returned to near baseline values | reversed in a matter of seconds | at least 40 min | getting into the brain; also recorded: penetrated the blood brain barrier more effectively | complete reversal of the effects of morphine |  |  |  | prodrug behaviour ([2]; acetate esters vs 1 and 2): served as prodrug forms of 1 and 2; antagonist potency in vivo (comparison in words) [2]: more potent effects on morphine induced paw withdrawal latency than their corresponding phenolic counterparts
4 | Oc1ccc2c3c1O[C@H]1[C@H](Br)CC[C@@]4(O)[C@@H](C2)N(CC2CC2)CC[C@]314 [CycloBROXY, reference compound] | 3.14 ± 0.11 | 1.19 | intermediate receptor affinity | 4.92 | 1.96 | 0.99 ± .09 | 4.21 ± 0.14 | 1.23 | 1.05 ± .04 | 0.7 ± 0.02 | 0.32 |  |  |  |  |  |  | 20.2 ± 1.2 | 7.21 | 5.77 ± 0.14 | higher affinity (fold) ([1]; [^3 H]DADLE, high affinity δ): 6 fold; IC50 ([1]; read-out: IC50): 4.3 nM; lower affinity / less potent (fold) than ioxy (μ receptor; [^3 H]DAGO displacement): about 1.5 fold; N (slope factor) (κ1 receptor; [^3 H]U69,593 displacement): 1.03 ± .03; relative potency in words (κ1 receptor; [^3 H]U69,593 displacement): most potent displacers; less potent (fold) than ioxy (κ2 receptor): 3 fold
5 | O=C1CC[C@@]2(O)[C@H]3Cc4ccc(O)c5c4[C@@]2(CCN3CC2CC2)[C@H]1O5 [Naltrexone, reference compound] |  |  |  |  |  |  |  |  |  |  |  |  | returned to near baseline values | reversed in a matter of seconds |  |  | complete reversal of the effects of morphine |  |  |  | 
